The Ki is the dissociation constant of the complex between target and ligand, obtained from inhibition or displacement.

This note sets out measurements from patent US20060063759A1, “Tricyclic steroid hormone nuclear receptor modulators” (priority 2002, published 2006).

One assay has as its target T1, human MR (Homo sapiens, UniProt P08235).
T1 construct: The full length human MR gene is cloned from a human kidney or human brain cDNA library; His tag from the pAcHLT vector (own knowledge); made in house; host or cells: Sf9 insect cells (baculovirus, pAcHLT transfer vector)
T1 sequence (P08235 1-984): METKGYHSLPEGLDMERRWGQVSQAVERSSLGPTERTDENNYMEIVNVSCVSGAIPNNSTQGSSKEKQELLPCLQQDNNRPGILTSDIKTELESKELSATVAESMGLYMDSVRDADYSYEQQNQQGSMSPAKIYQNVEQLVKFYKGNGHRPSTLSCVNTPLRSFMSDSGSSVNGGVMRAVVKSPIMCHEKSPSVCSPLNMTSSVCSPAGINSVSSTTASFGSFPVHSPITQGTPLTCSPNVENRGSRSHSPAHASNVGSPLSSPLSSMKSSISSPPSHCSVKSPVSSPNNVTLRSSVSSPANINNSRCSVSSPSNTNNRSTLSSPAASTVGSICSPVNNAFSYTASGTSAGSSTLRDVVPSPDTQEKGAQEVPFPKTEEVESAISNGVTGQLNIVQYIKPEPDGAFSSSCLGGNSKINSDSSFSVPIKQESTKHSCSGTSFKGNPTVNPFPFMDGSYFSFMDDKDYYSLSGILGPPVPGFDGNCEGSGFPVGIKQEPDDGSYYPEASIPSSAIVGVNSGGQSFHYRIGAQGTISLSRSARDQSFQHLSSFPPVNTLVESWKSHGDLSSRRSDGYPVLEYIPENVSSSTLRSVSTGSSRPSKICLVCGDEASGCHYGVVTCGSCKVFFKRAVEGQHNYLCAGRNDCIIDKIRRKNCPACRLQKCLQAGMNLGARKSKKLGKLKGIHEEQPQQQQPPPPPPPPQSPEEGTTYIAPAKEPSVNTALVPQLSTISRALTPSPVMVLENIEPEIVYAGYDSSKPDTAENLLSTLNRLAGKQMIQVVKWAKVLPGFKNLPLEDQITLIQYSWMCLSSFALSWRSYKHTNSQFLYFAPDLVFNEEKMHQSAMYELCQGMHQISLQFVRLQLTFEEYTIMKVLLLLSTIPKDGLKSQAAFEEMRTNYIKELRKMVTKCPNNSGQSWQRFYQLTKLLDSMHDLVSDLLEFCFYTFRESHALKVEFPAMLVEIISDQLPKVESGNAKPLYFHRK
Kind of assay: Mineralocorticoid Receptor Binding Assay ([3H]-aldosterone). Particulars: [3H]-aldosterone binding, human MR expressed in Sf9 cells; read-out: MR Ki. The method, boiled down:
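Lysate supernatant of Sf9 cells expressing full-length human MR (20-25 μg protein) was incubated with 0.5 nM [3H]-aldosterone and test compound in molybdate/Tris/phosphate/glycerol buffer, pH 7.5, ~16 h at 4 °C. Bound ligand was filtered and counted by scintillation; IC50 is the concentration halving [3H]-aldosterone binding.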

Another assay addresses T2, glucocorticoid receptor (Homo sapiens, UniProt P04150).
T2 construct: containing 50-200 ug of A549 cell extract and 1.86 nM [^3H]-dexamethasone; host or cells: A549 human lung epithelial cells (sonicated cell extract)
T2 sequence (P04150 1-777): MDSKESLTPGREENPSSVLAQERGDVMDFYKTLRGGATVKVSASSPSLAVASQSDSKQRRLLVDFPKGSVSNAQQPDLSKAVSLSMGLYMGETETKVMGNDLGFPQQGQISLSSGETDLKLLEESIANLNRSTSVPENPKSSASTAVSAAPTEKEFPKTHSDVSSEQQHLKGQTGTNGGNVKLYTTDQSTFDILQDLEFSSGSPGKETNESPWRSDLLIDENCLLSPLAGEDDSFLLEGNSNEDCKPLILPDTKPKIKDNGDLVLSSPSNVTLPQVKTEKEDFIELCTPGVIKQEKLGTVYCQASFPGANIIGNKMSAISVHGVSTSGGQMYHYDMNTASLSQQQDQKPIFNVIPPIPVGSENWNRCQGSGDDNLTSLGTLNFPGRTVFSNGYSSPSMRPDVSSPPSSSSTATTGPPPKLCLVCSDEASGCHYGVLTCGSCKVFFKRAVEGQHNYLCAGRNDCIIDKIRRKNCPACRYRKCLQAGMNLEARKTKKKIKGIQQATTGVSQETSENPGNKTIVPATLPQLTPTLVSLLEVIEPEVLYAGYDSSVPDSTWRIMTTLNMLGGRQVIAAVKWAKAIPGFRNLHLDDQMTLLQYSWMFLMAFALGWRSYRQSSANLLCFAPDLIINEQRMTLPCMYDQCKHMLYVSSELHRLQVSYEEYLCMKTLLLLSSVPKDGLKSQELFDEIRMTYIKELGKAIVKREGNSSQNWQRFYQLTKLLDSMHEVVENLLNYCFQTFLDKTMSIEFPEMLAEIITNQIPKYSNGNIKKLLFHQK
Kind of assay: Glucocorticoid Receptor Binding Assay ([3H]-dexamethasone, A549 cell extract). Particulars: [3H]-dexamethasone binding, read-out: GR Ki. The method, boiled down:
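A549 cell extract (50–200 ug) incubated with 1.86 nM [3H]-dexamethasone and test compound for 16 h at 4 °C in Tris-HCl pH 7.2 buffer with glycerol and molybdate. Unbound radioligand removed by dextran-coated charcoal, then supernatant bound counts measured by scintillation.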

For `O=c1[nH]c2ccc(/C=C3\c4ccc(F)cc4CCc4ncccc43)cc2[nH]1` [Example 487, (E)-5-(8-Fluoro-10,11-dihydro-benzo[4,5]cyclohepta[1,2-b]pyridin-5-ylidenemethyl)-1,3-dihydro-benzoimidazol-2-one], the inhibition constant (Ki) at human MR is < 500 nM; on glucocorticoid receptor, < 1000 nM.

Turning to `CS(=O)(=O)Nc1cc(F)cc(/C=C2\c3ccc(F)cc3CCc3ncccc32)c1` [Example 488, (E)-N-[3-Fluoro-5-(8-fluoro-10,11-dihydro-benzo[4,5]cyclohepta[1,2-b]pyridin-5-ylidenemethyl)-phenyl]-methanesulfonamide], the inhibition constant Ki at human MR and on glucocorticoid receptor was < 500 nM each time.

Turning to `C(=C1c2ccccc2CCc2sccc21)c1ccccc1` [Example 489], the inhibitory constant (Ki) at human MR was < 500 nM; on glucocorticoid receptor, < 10000 nM.

In the case of `Clc1ccc(C=C2c3ccccc3CCc3sccc32)c(Cl)c1` [Example 490], the Ki on human MR was < 1000 nM; at glucocorticoid receptor it was < 10000 nM.

`Cc1cc(C)cc(C=C2c3ccccc3CCc3sccc32)c1` [Example 491]: the Ki is < 500 nM on human MR and < 10000 nM at glucocorticoid receptor.

In the case of `CS(=O)(=O)Nc1ccc(C=C2c3ccccc3CCc3sccc32)cc1` [Example 495], the Ki at human MR and at glucocorticoid receptor was < 500 nM each time.

Regarding `CS(=O)(=O)Nc1cccc(/C=C2\c3ccc(Cl)cc3CCc3sccc32)c1` [Example 496], the Ki on human MR and on glucocorticoid receptor was < 500 nM each time.

For `Nc1cccc(C=C2c3ccccc3CCc3ccsc32)c1` [Example 498], the values for the Ki on human MR and at glucocorticoid receptor were < 500 nM and < 1000 nM, respectively.

As for `CS(=O)(=O)Nc1cccc(/C=C2/c3ccc(Cl)cc3CCc3sccc32)c1` [Example 499], the inhibition constant (Ki) on human MR and at glucocorticoid receptor was < 500 nM each time.

In the case of `CS(=O)(=O)Nc1cccc(/C=C2\c3ccccc3CCc3ccsc32)c1` [Example 501], the inhibition constant Ki on human MR and at glucocorticoid receptor was < 500 nM in each case.

With `CS(=O)(=O)Nc1cccc(/C=C2/c3ccccc3CCc3ccsc32)c1` [Example 502], the Ki on human MR and at glucocorticoid receptor was < 500 nM each time.

For `O=S(=O)(Nc1cccc(/C=C2/c3ccccc3CCc3sccc32)c1)c1ccccc1` [Example 503], the inhibitory constant (Ki) at human MR and on glucocorticoid receptor was < 500 nM in each case.

With `CS(=O)(=O)Nc1cccc(C=C2c3ccccc3CCc3occc32)c1` [Example 504], the Ki on human MR and at glucocorticoid receptor was < 500 nM each time.

Consider `CS(=O)(=O)Nc1cccc(C=C2c3ccccc3CCc3ncccc32)c1` [Example 505], for which the inhibition constant Ki on human MR was < 500 nM; at glucocorticoid receptor it was < 1000 nM.

As to `CS(=O)(=O)Nc1cccc(/C=C2\c3ccccc3CCc3ncccc32)c1` [Example 506], the Ki on human MR and on glucocorticoid receptor was < 500 nM throughout.

On to `Oc1cccc(/C=C2/c3ccccc3CCc3ncccc32)c1` [Example 507], for which the Ki at human MR and at glucocorticoid receptor was < 500 nM in each case.

For the molecule `CS(=O)(=O)Nc1cccc(/C=C2/c3ccc(F)cc3CCc3ncccc32)c1` [Example 510], the Ki at human MR is < 500 nM; on glucocorticoid receptor, < 10000 nM.

In the case of `Oc1cccc(/C=C2/c3ccccc3CCc3ccncc32)c1` [Example 514], the inhibition constant (Ki) at human MR was < 1000 nM; on glucocorticoid receptor, < 500 nM.

On to `CS(=O)(=O)Nc1cccc(/C=C2\c3ccccc3CCc3ccncc32)c1` [Example 515], for which the Ki at human MR was < 500 nM; on glucocorticoid receptor, < 10000 nM.

With `CS(=O)(=O)Nc1cccc(C[C@H]2c3ccccc3CCc3ncccc32)c1` [Example 517], the inhibition constant Ki on human MR was < 500 nM; on glucocorticoid receptor it was < 1000 nM.

Take `O=c1[nH]c2ccc(/C=C3/c4ccc(F)cc4CCc4ncccc43)cc2[nH]1` [Example 518]: the inhibition constant Ki on human MR and at glucocorticoid receptor was < 500 nM in each case.

On to `CS(=O)(=O)Nc1cccc(CC2c3ccc(F)cc3CCc3ncccc32)c1` (centres unmarked) [Example 519], for which the Ki on human MR and on glucocorticoid receptor was < 500 nM in each case.

For the molecule `CS(=O)(=O)Nc1cccc(CC2c3ccc(F)cc3CCc3ncccc32)c1` (centres unmarked) [Example 520], the Ki at human MR and at glucocorticoid receptor was < 500 nM throughout.

`CS(=O)(=O)Nc1cccc(/C=C2/c3ccc(F)cc3CCc3nc(C(F)(F)F)ccc32)c1` [Example 521]: the Ki on human MR and at glucocorticoid receptor was < 500 nM each time.

Take `CS(=O)(=O)Nc1cccc(/C=C2\c3ccc(F)cc3CCc3nc(C(F)(F)F)ccc32)c1` [Example 522]: the Ki on human MR and on glucocorticoid receptor was < 500 nM throughout.

With `CS(=O)(=O)Nc1cc(/C=C2\c3ccc(F)cc3CCc3ncccc32)ccc1F` [Example 524], the inhibition constant (Ki) at human MR and at glucocorticoid receptor was < 500 nM throughout.

As to `CS(=O)(=O)Nc1cc(F)cc(/C=C2/c3ccc(F)cc3CCc3ncccc32)c1` [Example 525], the inhibition constant Ki at human MR and at glucocorticoid receptor was < 500 nM in each case.

`Fc1ccc2c(c1)CCc1ncccc1/C2=C/c1ccccc1` [Example 526]: the Ki on human MR is < 500 nM; at glucocorticoid receptor, < 10000 nM.

For the molecule `Fc1ccc2c(c1)CCc1ncccc1/C2=C\c1ccccc1` [Example 527], the Ki is < 500 nM on human MR and < 10000 nM on glucocorticoid receptor.

`Oc1ccc(/C=C2\c3ccc(F)cc3CCc3ncccc32)cc1` [Example 528]: the values for the Ki on human MR and at glucocorticoid receptor were < 500 nM and < 1000 nM, respectively.

For `Oc1ccc(/C=C2/c3ccc(F)cc3CCc3ncccc32)cc1` [Example 529], the Ki on human MR is < 500 nM; at glucocorticoid receptor, < 10000 nM.

Turning to `Nc1ccccc1/C=C1\c2ccc(F)cc2CCc2ncccc21` [Example 530], the inhibition constant Ki on human MR and at glucocorticoid receptor was < 500 nM each time.

Turning to `Nc1ccccc1/C=C1/c2ccc(F)cc2CCc2ncccc21` [Example 531], the Ki at human MR and at glucocorticoid receptor was < 500 nM each time.

On to `Nc1cccc(/C=C2\c3ccc(F)cc3CCc3ncccc32)c1` [Example 532], for which the inhibition constant (Ki) on human MR was < 500 nM; at glucocorticoid receptor, < 1000 nM.

As to `Nc1cccc(/C=C2/c3ccc(F)cc3CCc3ncccc32)c1` [Example 533], the inhibition constant (Ki) at human MR was < 500 nM; at glucocorticoid receptor, < 1000 nM.

As for `Nc1ccc(/C=C2\c3ccc(F)cc3CCc3ncccc32)cc1` [Example 534], the inhibitory constant (Ki) was < 500 nM at human MR and < 10000 nM on glucocorticoid receptor.

For `Nc1ccc(/C=C2/c3ccc(F)cc3CCc3ncccc32)cc1` [Example 535], the Ki on human MR was < 1000 nM; at glucocorticoid receptor, < 10000 nM.

For `O=c1[nH]c2cc(/C=C3\c4ccc(F)cc4CCc4ncccc43)ccc2s1` [Example 536], the Ki at human MR and at glucocorticoid receptor was < 500 nM throughout.

As to `CS(=O)(=O)Nc1ccc(/C=C2/c3ccc(F)cc3CCc3ncccc32)cc1` [Example 537], the Ki was < 500 nM on human MR and < 10000 nM on glucocorticoid receptor.

In the case of `CS(=O)(=O)Nc1cccc(CC2c3ccccc3CCc3cccnc32)c1` (centres unmarked) [Example 538], the Ki on human MR and on glucocorticoid receptor was < 500 nM in each case.
